# System: not listed separately
# Assay: Partition coefficient was measured in between 1-octanol and aqueous buffer solution of pH 7.4
# Format: physicochemical
# Conditions: 1-octanol/aqueous buffer
row,SMILES,logD
1,CC1=NS(=O)(=O)c2ncccc2N1,-0.91
2,CC1Nc2ccncc2S(=O)(=O)N1 (stereo not given),0.13
3,CC1Nc2ncccc2S(=O)(=O)N1 (stereo not given),0.35
4,CC1=NS(=O)(=O)c2cccnc2N1,-0.25
5,CC1Nc2cccnc2S(=O)(=O)N1 (stereo not given),-0.2
6,CC1=NS(=O)(=O)c2cnccc2N1,-0.41

# Species on record: Rattus norvegicus
# Assay: Residual insulin release from rat pancreatic islets incubated in the presence of an insulinotropic […] glucose concentration and at a 50 uM concentration of drug
# Format: functional
# Conditions: not given
row,SMILES,RIS
1,CN1CNS(=O)(=O)c2cnccc21,95.8%
2,CC1=NS(=O)(=O)c2ncccc2N1,98.7%
3,CCCNC1=NS(=O)(=O)c2cnccc2N1,57.7%
4,NC1=NS(=O)(=O)c2cnccc2N1,104%
5,CC(C)N1CNS(=O)(=O)c2cnccc21,101%
6,CC1Nc2ccncc2S(=O)(=O)N1 (stereo not given),93.6%
7,CCC(C)NC1=NS(=O)(=O)c2cnccc2N1 (stereo not given),9.4%
8,CC1Nc2ncccc2S(=O)(=O)N1 (stereo not given),94.8%
9,CC1=NS(=O)(=O)c2cccnc2N1,92.8%
10,CC1Nc2cccnc2S(=O)(=O)N1 (stereo not given),81%
11,CC1=Nc2ccc(Cl)cc2S(=O)(=O)N1 [DIAZOXIDE],28.8%
12,CC1=NS(=O)(=O)c2cnccc2N1,100%
13,CC(C)C(C)NC1=NS(=O)(=O)c2cnccc2N1 (stereo not given),8.6%

# Species on record: Rattus norvegicus
# Assay: Concentration for 50 percent increase of the amplitude (A50) of the postsynaptic excitatory potentials induced by electric stimulation in rat hippocampal slices
# Format: functional, Hippocampus
# Conditions: not given
row,SMILES,A50
1,CC1=Nc2ccc(Cl)cc2S(=O)(=O)N1 [DIAZOXIDE],>500 µM

# Species on record: Rattus norvegicus
# Assay: Effect on amplitude of the postsynaptic excitatory potentials induced by electric stimulation in rat hippocampal slices
# Format: functional, Hippocampus
# Conditions: not given
row,SMILES,A50
1,CN1CNS(=O)(=O)c2cnccc21,216 µM
2,CCN1CNS(=O)(=O)c2cnccc21,222 µM
3,CN1CNS(=O)(=O)c2ncccc21,79 µM
4,NS(=O)(=O)c1cc2c(cc1Cl)NC(C1CC3C=CC1C3)NS2(=O)=O (stereo not given) [CYCLOTHIAZIDE],>300 µM
5,CC1Nc2cccnc2S(=O)(=O)N1 (stereo not given),154 µM

# Species on record: Rattus norvegicus
# Assay: Concentration for 50 percent increase of the duration (D50) of the postsynaptic excitatory potentials induced by electric stimulation in rat hippocampal slices
# Format: functional, Hippocampus
# Conditions: not given
row,SMILES,D50
1,CC1=Nc2ccc(Cl)cc2S(=O)(=O)N1 [DIAZOXIDE],>500 µM

# System: not listed separately
# Assay: Ratio between the D50 value and the A50 value
# Format: functional
# Conditions: not given
row,SMILES,Ratio
1,CN1CNS(=O)(=O)c2cnccc21,0.6
2,CCN1CNS(=O)(=O)c2cnccc21,0.6
3,CN1CNS(=O)(=O)c2ncccc21,0.6
4,CC1Nc2cccnc2S(=O)(=O)N1 (stereo not given),0.65

# Biological target: T1, Glutamate receptor ionotropic, AMPA (Rattus norvegicus) (UniProt P19491+P19492+P19493+P19490)
# Assay: Concentration of drug giving a 2-fold increase of the magnitude of the current induced by Ionotropic glutamate receptor AMPA (30 uM) and measured in Xenopus Oocytes expressing Rat Cortex AMPA Receptors
# Format: functional, cell-based
# Conditions: not given
row,SMILES,EC2x
1,CN1CNS(=O)(=O)c2cnccc21,63 µM
2,O=S1(=O)c2cnccc2NCN1c1ccccc1,> 100 µM
3,CC(C)C1Nc2ccncc2S(=O)(=O)N1 (stereo not given),> 1000 µM
4,O=S1(=O)NC(C2CCCCC2)Nc2ccncc21 (stereo not given),> 1000 µM
5,CN1CNc2cccnc2S1(=O)=O,341 µM
6,O=S1(=O)NCN(C2CCCCC2)c2ccncc21,> 1000 µM
7,CC1=NS(=O)(=O)c2ncccc2N1,400 µM
8,CCCNC1=NS(=O)(=O)c2cnccc2N1,> 1000 µM
9,CCCC1Nc2ccncc2S(=O)(=O)N1 (stereo not given),> 1000 µM
10,NC1=NS(=O)(=O)c2cnccc2N1,> 1000 µM
11,CCC1=NS(=O)(=O)c2cnccc2N1,> 1000 µM
12,CCCN1CN(C)c2ccncc2S1(=O)=O,> 1000 µM
13,CC1=NS(=O)(=O)c2cnccc2N1C(C)C,500 µM
14,CN1CN(C)S(=O)(=O)c2ncccc21,39 µM
15,CC(C)N1CNS(=O)(=O)c2cnccc21,94 µM
16,O=S1(=O)N=C(C(F)(F)F)Nc2ccncc21,> 1000 µM
17,CCN1CNS(=O)(=O)c2cnccc21,55 µM
18,CC1Nc2ccncc2S(=O)(=O)N1 (stereo not given),500 µM
19,O=S1(=O)NCN(CC(F)(F)F)c2ccncc21,110 µM

row,SMILES,EC2x
1,CCC1NS(=O)(=O)c2cnccc2N1C (stereo not given),800 µM
2,O=S1(=O)NC(c2ccccc2)Nc2ccncc21 (stereo not given),> 1000 µM
3,CN1CNS(=O)(=O)c2ncccc21,21 µM
4,O=S1(=O)NCNc2cccnc21,300 µM
5,CCC(C)NC1=NS(=O)(=O)c2cnccc2N1 (stereo not given),> 1000 µM
6,O=S1(=O)NCNc2ncccc21,> 1000 µM
7,CC1Nc2ncccc2S(=O)(=O)N1 (stereo not given),> 1000 µM
8,NS(=O)(=O)c1cc2c(cc1Cl)NC(C1CC3C=CC1C3)NS2(=O)=O (stereo not given) [CYCLOTHIAZIDE],1.6 µM
9,CCCN1CNS(=O)(=O)c2cnccc21,300 µM
10,CCCCCN1CNc2ccncc2S1(=O)=O,> 100 µM
11,CCC(CC)C1Nc2ccncc2S(=O)(=O)N1 (stereo not given),> 1000 µM
12,O=S1(=O)c2cnccc2NCN1C1CCCCC1,> 100 µM
13,O=S1(=O)N=CNc2cccnc21,> 1000 µM
14,CC1Nc2ccncc2S(=O)(=O)N1C (stereo not given),214 µM
15,CC(C)N1CN(C)S(=O)(=O)c2cnccc21,> 1000 µM
16,CC1=NS(=O)(=O)c2cccnc2N1,> 1000 µM
17,COc1ccc(C(=O)N2CCCC2=O)cc1,1440 µM
18,CC1Nc2cccnc2S(=O)(=O)N1 (stereo not given),114 µM
19,CCN1CN(C)S(=O)(=O)c2ncccc21,38 µM

row,SMILES,EC2x
1,CC(C)N1CNc2ccncc2S1(=O)=O,> 300 µM
2,O=S1(=O)N=CNc2ncccc21,> 1000 µM
3,CN1CN(C)S(=O)(=O)c2cnccc21,300 µM
4,CN1CNc2ccncc2S1(=O)=O,> 1000 µM
5,CCCCN1CNS(=O)(=O)c2cnccc21,800 µM
6,CC1=NS(=O)(=O)c2cnccc2N1C,250 µM
7,CC1=Nc2ccc(Cl)cc2S(=O)(=O)N1 [DIAZOXIDE],448 µM
8,CC1=NS(=O)(=O)c2cnccc2N1,> 1000 µM
9,CCN1CN(CC)S(=O)(=O)c2ncccc21,87 µM
10,CC1NS(=O)(=O)c2cnccc2N1C (stereo not given),150 µM
11,O=S1(=O)NCNc2ccncc21,> 1000 µM
12,CN1C=NS(=O)(=O)c2ncccc21,265 µM
13,CC(C)C(C)NC1=NS(=O)(=O)c2cnccc2N1 (stereo not given),> 1000 µM
14,CC(C)N1CNS(=O)(=O)c2ncccc21,27 µM
15,CCN1C=NS(=O)(=O)c2ncccc21,96 µM
16,CN1CNS(=O)(=O)c2cccnc21,200 µM
17,O=S1(=O)N=CNc2ccncc21,> 1000 µM
18,CC1=NS(=O)(=O)c2cccnc2N1C,800 µM
19,CCC1Nc2ccncc2S(=O)(=O)N1 (stereo not given),> 1000 µM

# Species on record: Rattus norvegicus
# Assay: Effect on duration of the postsynaptic excitatory potentials induced by electric stimulation in rat hippocampal slices
# Format: functional, Hippocampus
# Conditions: not given
row,SMILES,D50
1,CN1CNS(=O)(=O)c2cnccc21,130 µM
2,CCN1CNS(=O)(=O)c2cnccc21,137 µM
3,CN1CNS(=O)(=O)c2ncccc21,48 µM
4,NS(=O)(=O)c1cc2c(cc1Cl)NC(C1CC3C=CC1C3)NS2(=O)=O (stereo not given) [CYCLOTHIAZIDE],>300 µM
5,COc1ccc(C(=O)N2CCCC2=O)cc1,>2000 µM
6,CC1Nc2cccnc2S(=O)(=O)N1 (stereo not given),100 µM

# Biological target: T1, Glutamate receptor ionotropic, AMPA (Rattus norvegicus)
# Assay: concentration of drug giving a 5-fold increase of the magnitude of the current induced by Ionotropic glutamate receptor AMPA (30 uM) and measured in Xenopus Oocytes expressing Rat Cortex AMPA Receptors
# Format: functional, cell-based
# Conditions: not given
row,SMILES,EC5X
1,CN1CNS(=O)(=O)c2cnccc21,283 µM
2,O=S1(=O)c2cnccc2NCN1c1ccccc1,> 100 µM
3,CC(C)C1Nc2ccncc2S(=O)(=O)N1 (stereo not given),> 1000 µM
4,O=S1(=O)NC(C2CCCCC2)Nc2ccncc21 (stereo not given),> 1000 µM
5,CN1CNc2cccnc2S1(=O)=O,766 µM
6,O=S1(=O)NCN(C2CCCCC2)c2ccncc21,> 1000 µM
7,CC1=NS(=O)(=O)c2ncccc2N1,900 µM
8,CCCNC1=NS(=O)(=O)c2cnccc2N1,> 1000 µM
9,CCCC1Nc2ccncc2S(=O)(=O)N1 (stereo not given),> 1000 µM
10,NC1=NS(=O)(=O)c2cnccc2N1,> 1000 µM
11,CCC1=NS(=O)(=O)c2cnccc2N1,> 1000 µM
12,CCCN1CN(C)c2ccncc2S1(=O)=O,> 1000 µM
13,CC1=NS(=O)(=O)c2cnccc2N1C(C)C,1200 µM
14,CN1CN(C)S(=O)(=O)c2ncccc21,133 µM
15,CC(C)N1CNS(=O)(=O)c2cnccc21,237 µM
16,O=S1(=O)N=C(C(F)(F)F)Nc2ccncc21,> 1000 µM
17,CCN1CNS(=O)(=O)c2cnccc21,195 µM
18,CC1Nc2ccncc2S(=O)(=O)N1 (stereo not given),> 1000 µM
19,O=S1(=O)NCN(CC(F)(F)F)c2ccncc21,215 µM

row,SMILES,EC5X
1,CCC1NS(=O)(=O)c2cnccc2N1C (stereo not given),> 1000 µM
2,O=S1(=O)NC(c2ccccc2)Nc2ccncc21 (stereo not given),> 1000 µM
3,CN1CNS(=O)(=O)c2ncccc21,51 µM
4,O=S1(=O)NCNc2cccnc21,1100 µM
5,CCC(C)NC1=NS(=O)(=O)c2cnccc2N1 (stereo not given),> 1000 µM
6,O=S1(=O)NCNc2ncccc21,> 1000 µM
7,CC1Nc2ncccc2S(=O)(=O)N1 (stereo not given),> 1000 µM
8,NS(=O)(=O)c1cc2c(cc1Cl)NC(C1CC3C=CC1C3)NS2(=O)=O (stereo not given) [CYCLOTHIAZIDE],9.8 µM
9,CCCN1CNS(=O)(=O)c2cnccc21,805 µM
10,CCCCCN1CNc2ccncc2S1(=O)=O,> 100 µM
11,CCC(CC)C1Nc2ccncc2S(=O)(=O)N1 (stereo not given),> 1000 µM
12,O=S1(=O)c2cnccc2NCN1C1CCCCC1,> 100 µM
13,O=S1(=O)N=CNc2cccnc21,> 1000 µM
14,CC1Nc2ccncc2S(=O)(=O)N1C (stereo not given),381 µM
15,CC(C)N1CN(C)S(=O)(=O)c2cnccc21,> 1000 µM
16,CC1=NS(=O)(=O)c2cccnc2N1,> 1000 µM
17,COc1ccc(C(=O)N2CCCC2=O)cc1,> 3000 µM
18,CC1Nc2cccnc2S(=O)(=O)N1 (stereo not given),270 µM
19,CCN1CN(C)S(=O)(=O)c2ncccc21,96 µM

row,SMILES,EC5X
1,CC(C)N1CNc2ccncc2S1(=O)=O,> 300 µM
2,O=S1(=O)N=CNc2ncccc21,> 1000 µM
3,CN1CN(C)S(=O)(=O)c2cnccc21,> 1000 µM
4,CN1CNc2ccncc2S1(=O)=O,> 1000 µM
5,CCCCN1CNS(=O)(=O)c2cnccc21,> 1000 µM
6,CC1=NS(=O)(=O)c2cnccc2N1C,800 µM
7,CC1=Nc2ccc(Cl)cc2S(=O)(=O)N1 [DIAZOXIDE],> 1000 µM
8,CC1=NS(=O)(=O)c2cnccc2N1,> 1000 µM
9,CCN1CN(CC)S(=O)(=O)c2ncccc21,220 µM
10,CC1NS(=O)(=O)c2cnccc2N1C (stereo not given),450 µM
11,O=S1(=O)NCNc2ccncc21,> 1000 µM
12,CN1C=NS(=O)(=O)c2ncccc21,645 µM
13,CC(C)C(C)NC1=NS(=O)(=O)c2cnccc2N1 (stereo not given),> 1000 µM
14,CC(C)N1CNS(=O)(=O)c2ncccc21,41 µM
15,CCN1C=NS(=O)(=O)c2ncccc21,186 µM
16,CN1CNS(=O)(=O)c2cccnc21,500 µM
17,O=S1(=O)N=CNc2ccncc21,> 1000 µM
18,CC1=NS(=O)(=O)c2cccnc2N1C,> 1000 µM
19,CCC1Nc2ccncc2S(=O)(=O)N1 (stereo not given),> 1000 µM

# Reference: ChEMBL document CHEMBL1131581, “4H-1,2,4-Pyridothiadiazine 1,1-dioxides and 2,3-dihydro-4H-1,2, 4-pyridothiadiazine 1,1-dioxides chemically related to diazoxide and cyclothiazide as powerful positive allosteric modulators of (R/S)-2-amino-3-(3-hydroxy-5-methylisoxazol-4-yl)propionic acid receptors: design, synthesis, …” (J Med Chem, 1998)
